From patent EP0318767A2, “Esters of pharmacologically active carboxylic acids splittable under physiological conditions” (F. HOFFMANN-LA ROCHE AG, priority 1987, dated 1989) come the findings set out here.

One data set relates to Escherichia coli 25922. The data set can be described thus: Experimental septicaemia in mice, oral antimicrobial efficacy. Conditions: Albino mice 16-20 g infected i.p. with Escherichia coli 25922, ester given orally in Tween 80 (4%) 1 and 3 h after infection, dose protecting 50% of animals, survival 4 days after infection, probit method; for ED50: read-out: ED₅₀ in mg/kg p.o. It is filed as in vivo. The text has this: Die perorale antimikrobielle Wirksamkeit der erfindungsgemässen Ester von antibiotisch wirksamen Carbonsäuren kann beispielsweise im nachfolgend beschriebenen Tierversuch nachgewiesen werden:
(§1) Man verursacht eine experimentelle Septikämie in 16-20 g schweren Albinomäusen, indem man den Versuchstieren eine Probe einer verdünnten Kultur des Testorganismus, Escherichia coli 25922, welche über Nacht gewachsen ist. intraperitoneal injiziert. Die verabreichte Probe wird dabei so bemessen, dass die verabreichte Dosis etwa 10-20 mal grösser ist, als die Dosis, welche benötigt wird um 50% der unbehandelten Versuchstiere innerhalb von 48 Stunden zu töten. Die Bakterien wurden als Suspension in Kulturbrühe injiziert. Sowohl für die Kontrolle als auch für die Behandlung wurden für jede getestete Dosis Gruppen zu je 5 Versuchstieren verwendet. Die erfindungsgemässen Ester wurden oral verabreicht, und zwar als Lösung in Tween 80 (4%), wobei die Konzentrationen so gewählt wurden, dass jedes Versuchstier 500 µl erhielt. Die Behandlungen erfolgten 1 und 3 Stunden nach der Infektion. Die ED₅₀ ist diejenige Dosis, welche 50% der Versuchstiere schützt, und wurde ausgehend von der Ueberlebensrate nach 4 Tagen nach der Infektion mittels der Probitmethode berechnet. In der nachfolgenden Tabelle sind die ED₅₀-Werte in mg/kg p.o. für Vertreter der erfindungsgemassen Stoffklasse angegeben. Die Tabelle enthält ausserdem Angaben über die akute Toxizität der erfindungsgemässen Ester bei einmaliger oraler Verabreichung an Mäusen. Tabelle

The next data set concerns Mäusen. The data set can be described thus: Acute toxicity after a single oral administration to mice. It is filed as in vivo.
Description: as §1

On to `CC/C=C(\COC(=O)C1=C(CN=[N+]=[N-])CS[C@@H]2[C@H](NC(=O)/C(=N\OC)c3csc(N)n3)C(=O)N12)C(=O)OCC(C)C` [Verbindung A, (E)-2-(Isobutoxycarbonyl)-2-pentenyl (6R,7R)-7-[(Z)-2-(2-amino-4-thiazolyl)-2-(methoxyimino)acetamido]-3-(azidomethyl)-8-oxo-5-thia-1-azabicyclo[4.2.0]oct-2-en-2-carboxylat], for which the ED50 in the data set with Escherichia coli 25922 amounted to 0.28 mg/kg. In addition, the “DL₅₀ in mg/kg p.o.” value with Mäusen was over 5000 mg/kg. `CC/C=C(\COC(=O)C1=C(C)CS[C@@H]2[C@H](NC(=O)/C(=N\OC)c3csc(N)n3)C(=O)N12)C(=O)OCC(C)C` [Verbindung B, (E)-2-(Isobutoxycarbonyl)-2-pentenyl (6R,7R)-7-[(Z)-2-(2-amino-4-thiazolyl)-2-(methoxyimino)acetamido]-3-methyl-8-oxo-5-thia-1-azabicyclo[4.2.0]oct-2-en-2-carboxylat]: the ED50 in the data set on Escherichia coli 25922 worked out at 1.4 mg/kg. `C/C=C(\COC(=O)C1=C(C)CS[C@@H]2[C@H](NC(=O)/C(=N\OC)c3csc(N)n3)C(=O)N12)C(=O)OCC` [Verbindung C, (E)-2-(Aethoxycarbonyl)-2-butenyl (6R,7R)-7-[(Z)-2-(2-amino-4-thiazolyl)-2-(methoxyimino)acetamido]-3-methyl-8-oxo-5-thia-azabicyclo[4.2.0]oct-2-en-2-carboxylat]: the “ED₅₀ in mg/kg p.o.” value in the data set with Escherichia coli 25922 is listed as 0,89 mg/kg. Further, the “DL₅₀ in mg/kg p.o.” value with Mäusen was over 5000 mg/kg.
